Values of other authors in paper PMC9298787 (The Prostate, 2021).
“And” between values parts separate entries of the source, which are not always exact repeats. Identical values can stand only once.

Details: single oral 160 mg enzalutamide, fasting, three matched healthy controls

CNC(=O)c1ccc(N2C(=S)N(c3ccc(C#N)c(C(F)(F)F)c3)C(=O)C2(C)C)cc1F [enzalutamide]
AUC0‐∞: 245.8 µg·h/mL and 224.8 µg·h/mL
Cmax: 3800 ng/mL and 4600 ng/mL
t1/2: 115.3 h and 108.3 h and 111.6 h
